Reference: patent US10238670B2, “9-aminomethyl minocycline compounds and methods of use thereof in urinary tract infection (UTI) treatment” (Paratek Pharmaceuticals, Inc., priority 2016, dated 2019)
≈ marks a conversion by molar mass, not a printed value. Read-outs that look alike come from different tables or passages of the source.

Assays:
Test in all cases: In vitro MIC, 2010 surveillance isolates
E. coli ESBL− = type: cell-based, Escherichia coli
E. coli ESBL+ = type: cell-based, Escherichia coli
K. pneumoniae ESBL− = type: cell-based, Klebsiella pneumoniae
K. pneumoniae ESBL+ = type: cell-based, Klebsiella pneumoniae
K. oxytoca = type: cell-based
E. cloacae CeftazS = type: cell-based
E. cloacae CeftazR = type: cell-based
Enterobacter spp = type: cell-based
A. baumanii = type: cell-based
Acinetobacter spp = type: cell-based
MSSA = type: cell-based
MRSA = type: cell-based
MS CoNS = type: cell-based, Coagulase-Negative Staphylococcus
MR CoNS = type: cell-based, Coagulase-Negative Staphylococcus
E. faecalis VS = type: cell-based; conditions: for % R (resistance): CLSI breakpoints
E. faecalis VNS = type: cell-based; conditions: for % R (resistance): CLSI breakpoints
E. faecium VS = type: cell-based; conditions: for % R (resistance): CLSI breakpoints
E. faecium VNS = type: cell-based; conditions: for % R (resistance): CLSI breakpoints

C[C@H]1COc2c(N3CCN(C)CC3)c(F)cc3c(=O)c(C(=O)O)cn1c23 [Levofloxacin]
% R (resistance) (E. coli ESBL−; Asia/Pac, Eucast breakpoints): 17%
MIC90 (E. coli ESBL−; Asia/Pac, N=282): > 4 µg/mL
% R (resistance) (E. coli ESBL−; Europe, Eucast breakpoints): 19.3%
MIC90 (E. coli ESBL−; Europe, N=1533): > 4 µg/mL
% R (resistance) (E. coli ESBL−; L. Amer, CLSI breakpoints): 22.9%
MIC90 (E. coli ESBL−; L. Amer, N=389): > 4 µg/mL
% R (resistance) (E. coli ESBL−; N America, CLSI breakpoints): 21.9%
MIC90 (E. coli ESBL−; N America, N=1172): > 4 µg/mL
% R (resistance) (E. coli ESBL+; Asia/Pac, Eucast breakpoints): 78.1%
MIC90 (E. coli ESBL+; Asia/Pac, N=219): > 4 µg/mL
resistance rates for ESBL-producing clinical isolates (E. coli ESBL+; E. coli): 76.5%
MIC90 (E. coli ESBL+; Escherichia coli, ESBL-producing E. coli, read-out: MIC90): > 4 µg/mL
% R (resistance) (E. coli ESBL+; Europe, Eucast breakpoints): 79.2%
MIC90 (E. coli ESBL+; Europe, N=274): > 4 µg/mL
% R (resistance) (E. coli ESBL+; L. Amer, CLSI breakpoints): 81%
MIC90 (E. coli ESBL+; L. Amer, N=168): > 4 µg/mL
% R (resistance) (E. coli ESBL+; N America, CLSI breakpoints): 74.6%
MIC90 (E. coli ESBL+; N America, N=134): > 4 µg/mL
% R (resistance) (K. pneumoniae ESBL−; Asia/Pac, Eucast breakpoints): 5.3%
MIC90 (K. pneumoniae ESBL−; Asia/Pac, N=189): 1 µg/mL (≈ 2.77 µM)
% R (resistance) (K. pneumoniae ESBL−; Europe, Eucast breakpoints): 4.2%
MIC90 (K. pneumoniae ESBL−; Europe, N=361): ≤ 0.5 µg/mL
% R (resistance) (K. pneumoniae ESBL−; L. Amer, CLSI breakpoints): 7.5%
MIC90 (K. pneumoniae ESBL−; L. Amer, N=160): 1 µg/mL (≈ 2.77 µM)
% R (resistance) (K. pneumoniae ESBL−; N America, CLSI breakpoints): 1.9%
MIC90 (K. pneumoniae ESBL−; N America, N=671): ≤ 0.5 µg/mL
% R (resistance) (K. pneumoniae ESBL+; Asia/Pac, Eucast breakpoints): 61.3%
MIC90 (K. pneumoniae ESBL+; Asia/Pac, N=124): > 4 µg/mL
% R (resistance) (K. pneumoniae ESBL+; Europe, Eucast breakpoints): 66.9%
MIC90 (K. pneumoniae ESBL+; Europe, N=151): > 4 µg/mL
% R (resistance) (K. pneumoniae ESBL+; L. Amer, CLSI breakpoints): 67.9%
MIC90 (K. pneumoniae ESBL+; L. Amer, N=209): > 4 µg/mL
% R (resistance) (K. pneumoniae ESBL+; N America, CLSI breakpoints): 75%
MIC90 (K. pneumoniae ESBL+; N America, N=108): > 4 µg/mL
% R (resistance) (K. oxytoca; Asia/Pac, Eucast breakpoints): 0%
MIC90 (K. oxytoca; Asia/Pac, N=17): ≤ 0.5 µg/mL
% R (resistance) (K. oxytoca; Europe, Eucast breakpoints): 3.2%
MIC90 (K. oxytoca; Europe, N=158): ≤ 0.5 µg/mL
% R (resistance) (K. oxytoca; L. Amer, CLSI breakpoints): 16%
MIC90 (K. oxytoca; L. Amer, N=25): > 4 µg/mL
% R (resistance) (K. oxytoca; N America, CLSI breakpoints): 1.7%
MIC90 (K. oxytoca; N America, N=177): ≤ 0.5 µg/mL
% R (resistance) (E. cloacae CeftazS; Asia/Pac, Eucast breakpoints): 4%
MIC90 (E. cloacae CeftazS; Asia/Pac, N=100): ≤ 0.5 µg/mL
% R (resistance) (E. cloacae CeftazS; Europe, Eucast breakpoints): 2.2%
MIC90 (E. cloacae CeftazS; Europe, N=183): ≤ 0.5 µg/mL
% R (resistance) (E. cloacae CeftazS; L. Amer, CLSI breakpoints): 12.3%
MIC90 (E. cloacae CeftazS; L. Amer, N=57): > 4 µg/mL
% R (resistance) (E. cloacae CeftazS; N America, CLSI breakpoints): 2.9%
MIC90 (E. cloacae CeftazS; N America, N=210): ≤ 0.5 µg/mL
% R (resistance) (E. cloacae CeftazR; Asia/Pac, Eucast breakpoints): 20.6%
MIC90 (E. cloacae CeftazR; Asia/Pac, N=63): > 4 µg/mL
% R (resistance) (E. cloacae CeftazR; Europe, Eucast breakpoints): 22.2%
MIC90 (E. cloacae CeftazR; Europe, N=72): > 4 µg/mL
% R (resistance) (E. cloacae CeftazR; L. Amer, CLSI breakpoints): 31%
MIC90 (E. cloacae CeftazR; L. Amer, N=42): > 4 µg/mL
% R (resistance) (E. cloacae CeftazR; N America, CLSI breakpoints): 19.5%
MIC90 (E. cloacae CeftazR; N America, N=77): > 4 µg/mL
% R (resistance) (Enterobacter spp; Asia/Pac, Eucast breakpoints): 1.9%
MIC90 (Enterobacter spp; Asia/Pac, N=52): ≤ 0.5 µg/mL
% R (resistance) (Enterobacter spp; Europe, Eucast breakpoints): 73%
MIC90 (Enterobacter spp; Europe, N=82): 1 µg/mL (≈ 2.77 µM)
% R (resistance) (Enterobacter spp; L. Amer, CLSI breakpoints): 9.5%
MIC90 (Enterobacter spp; L. Amer, N=42): 4 µg/mL (≈ 11.1 µM)
% R (resistance) (Enterobacter spp; N America, CLSI breakpoints): 1%
MIC90 (Enterobacter spp; N America, N=101): ≤ 0.5 µg/mL
% R (resistance) (A. baumanii; Asia/Pac, Eucast breakpoints): 79.3%
MIC90 (A. baumanii; Asia/Pac, N=275): > 4 µg/mL
% R (resistance) (A. baumanii; Europe, Eucast breakpoints): 74.5%
MIC90 (A. baumanii; Europe, N=145): > 4 µg/mL
% R (resistance) (A. baumanii; L. Amer, CLSI breakpoints): 86.9%
MIC90 (A. baumanii; L. Amer, N=275): > 4 µg/mL
% R (resistance) (A. baumanii; N America, CLSI breakpoints): 68.8%
MIC90 (A. baumanii; N America, N=154): > 4 µg/mL
% R (resistance) (Acinetobacter spp; Asia/Pac, Eucast breakpoints): 11.1%
% R (resistance) (Acinetobacter spp; Europe, Eucast breakpoints): 41.9%
MIC90 (Acinetobacter spp; Europe, N=43): > 4 µg/mL
% R (resistance) (Acinetobacter spp; L. Amer, CLSI breakpoints): 33.3%
% R (resistance) (Acinetobacter spp; N America, CLSI breakpoints): 14.3%
MIC90 (Acinetobacter spp; N America, N=42): > 4 µg/mL
% R (resistance) (MSSA; Asia/Pac, Eucast breakpoints): 5.9%
MIC90 (MSSA; Asia/Pac, N=641): ≤ 0.5 µg/mL
% R (resistance) (MSSA; Europe, Eucast breakpoints): 5.5%
MIC90 (MSSA; Europe, N=2109): ≤ 0.5 µg/mL
% R (resistance) (MSSA; L. Amer, CLSI breakpoints): 2.2%
MIC90 (MSSA; L. Amer, N=590): ≤ 0.5 µg/mL
% R (resistance) (MSSA; N America, CLSI breakpoints): 10.8%
MIC90 (MSSA; N America, N=2373): 4 µg/mL (≈ 11.1 µM)
% R (resistance) (MRSA; Asia/Pac, Eucast breakpoints): 70.6%
MIC90 (MRSA; Asia/Pac, N=428): > 4 µg/mL
% R (resistance) (MRSA; Europe, Eucast breakpoints): 86.4%
MIC90 (MRSA; Europe, N=750): > 4 µg/mL
% R (resistance) (MRSA; L. Amer, CLSI breakpoints): 84%
MIC90 (MRSA; L. Amer, N=506): > 4 µg/mL
% R (resistance) (MRSA; N America, CLSI breakpoints): 67.3%
MIC90 (MRSA; N America, N=2508): > 4 µg/mL
% R (resistance) (MS CoNS; Asia/Pac, Eucast breakpoints): 16.7%
MIC90 (MS CoNS; Asia/Pac, N=18): > 4 µg/mL
% R (resistance) (MS CoNS; Europe, Eucast breakpoints): 9.7%
MIC90 (MS CoNS; Europe, N=185): 2 µg/mL (≈ 5.53 µM)
% R (resistance) (MS CoNS; L. Amer, CLSI breakpoints): 6%
MIC90 (MS CoNS; L. Amer, N=67): ≤ 0.5 µg/mL
% R (resistance) (MS CoNS; N America, CLSI breakpoints): 23.6%
MIC90 (MS CoNS; N America, N=191): > 4 µg/mL
% R (resistance) (MR CoNS; Asia/Pac, Eucast breakpoints): 55.8%
MIC90 (MR CoNS; Asia/Pac, N=77): > 4 µg/mL
% R (resistance) (MR CoNS; Europe, Eucast breakpoints): 64.9%
MIC90 (MR CoNS; Europe, N=510): > 4 µg/mL
% R (resistance) (MR CoNS; L. Amer, CLSI breakpoints): 57.8%
MIC90 (MR CoNS; L. Amer, N=301): > 4 µg/mL
% R (resistance) (MR CoNS; N America, CLSI breakpoints): 64.9%
MIC90 (MR CoNS; N America, N=461): > 4 µg/mL
MIC90 (E. faecalis VS; Asia/Pac, N=214): > 4 µg/mL
MIC90 (E. faecalis VS; Europe, N=669): > 4 µg/mL
% R (resistance) (E. faecalis VS; L. Amer): 30%
MIC90 (E. faecalis VS; L. Amer, N=290): > 4 µg/mL
% R (resistance) (E. faecalis VS; N America): 29.3%
MIC90 (E. faecalis VS; N America, N=863): > 4 µg/mL
range of MICs (N <10, shown instead of MIC90) (E. faecalis VNS; Asia/Pac, N=1): >4
% R (resistance) (E. faecalis VNS; L. Amer): 100%
range of MICs (N <10, shown instead of MIC90) (E. faecalis VNS; L. Amer, N=7): > 4
% R (resistance) (E. faecalis VNS; N America): 97.4%
MIC90 (E. faecalis VNS; N America, N=38): > 4 µg/mL
MIC90 (E. faecium VS; Asia/Pac, N=106): > 4 µg/mL
MIC90 (E. faecium VS; Europe, N=303): > 4 µg/mL
% R (resistance) (E. faecium VS; L. Amer): 78.4%
MIC90 (E. faecium VS; L. Amer, N=51): > 4 µg/mL
% R (resistance) (E. faecium VS; N America): 68.7%
MIC90 (E. faecium VS; N America, N=115): > 4 µg/mL
MIC90 (E. faecium VNS; Asia/Pac, N=24): > 4 µg/mL
MIC90 (E. faecium VNS; Europe, N=71): > 4 µg/mL
% R (resistance) (E. faecium VNS; L. Amer): 100%
MIC90 (E. faecium VNS; L. Amer, N=41): > 4 µg/mL
% R (resistance) (E. faecium VNS; N America): 99.6%
MIC90 (E. faecium VNS; N America, N=478): > 4 µg/mL
